Results taken from US9937104B2, “Nanostructured antibacterial and remineralizing dental bonding agents and dental bonding systems” (UNIVERSITY OF MARYLAND, BALTIMORE, priority 2012, dated 2018).
Entries after “also recorded” stand apart in the source; their conditions may differ.

Columns and labels:
[1] = test system: S. mutans (ATCC 700610, UA159); assay: MIC and MBC by serial microdilution; format: cell-based, Streptococcus mutans; settings: for MIC and MBC relative to QADM: compared with QADM
Description: MIC and MBC were measured using S. mutans (ATCC 700610, UA159, American Type Culture, Manassas, Va.). S. mutans is a cariogenic, aerotolerant anaerobic bacterium and the primary causative agent of dental caries (Loesche 1986). MIC and MBC were determined via serial microdilution assays (Imazato S et al. 2006; Huang L et al. 2011). Unpolymerized DMAHM or DMADM monomer was dissolved in brain heart infusion (BHI) broth (BD, Franklin Lakes, N.J.) to give a final concentration of 200 mg/mL. From these starting solutions, serial two fold dilutions were made into 1 mL volumes of BHI broth. 15 μL of stock S. mutans was added to 15 mL of BHI broth with 0.2% sucrose and incubated at 37° C. with 5% CO2. Overnight cultures of S. mutans were adjusted to 2×10^6 CFU/mL with BHI broth, and 50 μL of inocula was added to each well of a 96-well plate containing 50 μL of a series of antibacterial monomer dilution broths. BHI broth with 1×10^6 CFU/mL bacteria suspension without antibacterial agent served as negative control. Chlorhexidine diacetate (CHX) (Sigma, St. Louis, Mo.) served as positive control. The previously-synthesized QADM (Antonucci J M et al. 2012; Cheng L et al. 2012a) served as an antibacterial monomer control. After incubation at 37° C. in 5% CO2 for 48 h, the wells were read for turbidity, referenced by the negative and positive control wells. MIC was determined as the endpoint (the well with the lowest antibacterial agent concentration) where no turbidity could be detected with respect to the controls (Huang L et al. 2011). To determine MBC, an aliquot of 50 μL from each well without turbidity was inoculated on BHI agar plates and incubated at 37° C. in 5% CO2 for 48 h. MBC was determined as the lowest concentration of antibacterial agent that produced no colonies on the plate. The tests were performed in triplicate (Huang L et al. 2011).
The use of S. mutans (ATCC 700610, American Type Culture, Manassas, Va.) was approved by the University of Maryland. S. mutans is a cariogenic, aerotolerant anaerobic bacterium and the primary causative agent of dental caries (Deng et al. 2004). MIC and MBC were determined via serial microdilution assays (Imazato et al. 2006; Huang et al. 2011). Unpolymerized DMAHM or DMADDM monomer was dissolved in brain heart infusion (BHI) broth (BD, Franklin Lakes, N.J.) to a concentration of 200 mg/mL. From these starting solutions, serial two fold dilutions were made into 1 mL volumes of BHI broth. […] The wells were read for turbidity after incubation at 37° C. in 5% CO2 for 48 h, referenced by the negative and positive control wells. MIC was defined as the endpoint (the well with the lowest antibacterial agent concentration) where no turbidity could be detected with respect to the controls (Huang et al. 2011). […]

[2] = test system: Human gingival fibroblasts (HGF); format: cell-based; settings: MTT
Description: Human gingival fibroblasts (HGF, ScienCell) were cultured in a fibroblast medium (FM). […] Then, HGF were seeded in 96-well plates at 5,000 cells per well. […] After 4 h, the unreacted dye was removed and 150 μL of dimethyl sulfoxide was added. Absorbance was measured via the microplate reader at 492 nm. […] Cells were also live/dead stained (Molecular Probes) and examined with fluorescence microscopy (TE2000-S, Nikon) as shown in FIG. 15B.

[3] = test system: mature biofilms (48 hours); assay: Mature biofilm (48 hours) CFU, antibacterial monomers in primer and adhesive; format: cell-based; settings: 10% mass fraction in primer and adhesive (P&A control)
Description: FIG. 29. Effect of antibacterial monomers from Table 1, with chain length (CL) of 3, 6, 9, 12, 16 and 18, on mature biofilms (48 hours). Each monomer was mixed into the primer and adhesive control (P&A control) at 10% mass fraction (mean+−sd; n=6). […] CL=16 reduced the biofilm CFU by 4 orders of magnitude, compared to control.
FIG. 31. Effect of mass fraction of the antibacterial monomer DMAHDM (with chain length of 16) on mature biofilms (48 hours) (mean+−sd; n=6). […] DMAHDM at 10% mass fraction reduced the biofilm CFU by nearly 4 orders of magnitude, compared to control.

Structure (SMILES) | MIC and MBC relative to those of DMAHM ([1]; S. mutans, compared with DMAHM) | MIC and MBC relative to QADM ([1]; S. mutans) | Cytotoxicity compared with BisGMA [2] | MBC and MIC potency relative to chain length 12 ([1]; compared with chain length 12 monomer) | Reduction of mature biofilm CFU compared to control [3]
C=C(C)C(=O)OCC[N+](C)(C)CCCCCCCCCCCC.[Br-] [DMADDM, dimethylamino dodecyl methacrylate] | more than two orders of magnitude lower; also recorded: three orders of magnitude lower | four orders of magnitude lower | less cytotoxic | – | –
C=C(C)C(=O)OCC[N+](C)(C)CCCCCCCCCCCCCCCC.[Br-] [DMAHDM, dimethylamino hexadecyl methacrylate] | – | – | – | an order of magnitude more potent | 4 orders of magnitude
C=C(C)C(=O)OCCCCCCCCCCCC[n+]1ccccc1.[Br-] [MDPB, reference compound] | – | – | less cytotoxic | – | –
C=C(C)C(=O)OCC[N+](C)(C)CCCCCC.[Br-] [DMAHM] | – | a lower concentration, by an order of magnitude | – | – | –
